# Source: US12319752B2, “Heparin-binding cationic peptide self-assembling peptide amphiphiles useful against drug-resistant bacteria” (priority 2016, dated 2025)
# Residues, ends and D or L forms follow the SMILES beside them. *: point of attachment. Palmitoyl = CCCCCCCCCCCCCCCC(=O)*
# Assays:
# MRSA [1] = test: Bacterial growth inhibition (growth curves, OD562, 20 h); assay type: cell-based, methicillin-resistant S. aureus (MRSA, ATCC #43300)
# Description: Gram-positive (S. aureus and MRSA) and Gram-negative (E. coli and MDR E. coli) bacteria were incubated with peptide concentrations ranging from 20 to 100 μM, and time-lapsed bacterial growth was monitored for 20 hours by determining the optical density at 562 nm (O.D. 562 nm). […] At the highest concentration tested (100 μM), the time to exponential growth phase of S. aurues was delayed by about 18 h (FIG. 5B), and was prolonged by almost 13 h for MRSA (FIG. 5A), while bacteria incubated without ACA-PA entered the exponential growth phase within 4 h. Gram-positive bacteria were also susceptible to the ACA-PA even below their CMC.
# The MIC values of ACA-PA towards drug-resistant bacteria were determined after 24 h of incubation (Table 2).
# This assay was performed to investigate the inhibitory effects of each peptide against Gram-positive Staphylococcus aureus (S. aureus, ATCC #25923) and methicillin-resistant S. aureus (MRSA, ATCC #43300), as well as Gram-negative Escherichia coli (E. coli, ATCC #25922), and multidrug-resistant E. coli (MDR E. coli, ATCC #BAA-2471). In all experiments, solutions of each peptide at the concentrations from 20 μM to 100 μM in 3% Tryptic Soy Broth (TSB) media were freshly prepared. A single colony of bacteria was isolated from a stock agar plate and cultured overnight in 4 mL of 3% TSB on a shaking incubator set at 200 rpm and 37° C. The bacteria culture was adjusted to an optical density at 562 nm (OD562) to about 0.52 (10^9 cells/mL), and the resulting bacteria suspension was subsequently diluted to about 10^6 colony forming units (CFU) per mL in each sample. The control samples were bacteria incubated in TSB media without peptides. The bacteria were incubated inside a spectrophotometer (Spectra-Max Paradigm, Molecular Devices, Sunnyvale, CA) at 37° C. under static conditions for 20 h, and the bacterial growth curves were measured in terms of turbidity at OD562 every 2 minutes. The normalized OD562 values of samples were calculated by subtracting the […].
# MRSA [2] = test: Bacterial membrane disruption by TEM of ultrathin sections; assay type: cell-based, methicillin-resistant S. aureus (MRSA); settings: 4 h
# Description: TEM was used to reveal the damage in bacterial cell envelopes caused by ACA-PA treatment. Drug-resistant bacterial strains (MRSA and MDR E. coli) were exposed to ACA-PA at concentrations below (40 μM) and above (80 μM) the CMC, and ultrathin sections of the bacterial cultures were visualized by TEM.
# The ACA-PA at a concentration lower than CMC seemed to only influenced the outer bacteria membrane, but were inadequate to disrupt the inner bacteria membranes.
# Bacterial membrane disruption was observed from the ultrathin sectioned sample using TEM. […] After treatment with 80 μM ACA nanorods, bacterial cell membranes were severely damaged with complete cytoplasm leakage. […] On the damaged membranes, blisters appeared to originate from the pores. This explains the reason for the different antibacterial activity of ACA-PA on Gram-negative bacteria compared to the concentration-dependent toxicity on Gram-positive bacteria. The cell envelope of Gram-positive has a cytoplasmic membrane surrounded by a thick peptidoglycan layer with lipoteichoic acid. The antibacterial ACA-PA could penetrate the Gram-positive bacterial membrane by charge and hydrophobicity, although the PA were in a dispersed, non-assembled form. However, such dispersed PA were not able to penetrate the outer membrane of Gram-negative bacteria. […]
smiles,measurement,setting,value
"CCCCCCCCCCCCCCCC(=O)N[C@H](C(=O)N[C@H](C(=O)N[C@H](C(=O)N[C@H](C(=O)N[C@@H](CCCCN)C(=O)N[C@@H](CCCCN)C(=O)N[C@@H](CCCCN)C(=O)N[C@@H](CCCCN)C(=O)NCC(=O)N[C@@H](C)C(=O)N[C@@H](CCCCN)C(=O)N[C@@H](CCCCN)C(=O)N[C@@H](C)C(=O)N[C@@H](CCCNC(=N)N)C(=O)N[C@@H](C)C(=O)N[C@@H](C)C(=O)N[C@@H](CCCCN)C(=O)N[C@@H](CCCCN)C(=O)N[C@@H](C)C(=O)N[C@@H](CCCNC(=N)N)C(=O)N[C@@H](C)C(=O)O)C(C)C)C(C)C)C(C)C)C(C)C [ACA-PA, C16-V4K4G(AKKARA)2 (SEQ ID NO: 7)] (Palmitoyl-VVVVKKKKGAKKARAAKKARA-OH; N-terminus and C-terminus assumed)",prolongation of time to exponential growth phase,MRSA [1]; 100 μM,~13 h
same,bacterial growth inhibition,"MRSA [1]; 20 to 100 μM, 20 h",remarkably inhibited the proliferation
same,susceptibility of bacterial growth,MRSA [1]; below the CMC,susceptible
same,bacterial membrane disruption (TEM),MRSA [2]; 40 μM,partially damaged
same,bacterial membrane disruption (TEM),MRSA [2]; 80 μM,localized disruption on the cell membrane and complete leakage of the cytoplasm
